According to patent publication US11608313B2, “Adamantylmethylamine derivative and use thereof as pharmaceutical” (TOHOKU UNIVERSITY, priority 2017, dated 2023):

Assays:
Type in all cases: in vivo
[1] = test system: Wild-type mice (C57BL/6J) treated with corticosterone; assay: Anxiety-related behavioral tests in corticosterone-treated wild-type mice; conditions: 1 mg/kg orally once a day for 2 weeks
Description: Wild-type mice (C57BL/6J, Japan SLC, two month-old) treated with corticosterone (at a dose of 5 mg/kg once a day for 2 weeks) and Kir6.1-deficient mice treated with corticosterone were used as disease models showing anxiety-like symptoms, to perform five behavioral tests regarding anxiety-related behaviors. The Kir6.1-deficient mice were obtained from Professor Susumu Seino, School of Medicine of Kobe University (Miki T., et al., Nature Medicine 2002, 8, 466-472).
The apparatus used in this test consists of four arms arranged in a cross shape at an elevated position, which are either open or closed. Mice vulnerable to anxiety stay in the closed arms for a longer time, whereas those resistant to anxiety stay in the open arms. In FIG. 19-1, the time spent in the open arms is shown on the vertical axis.
Mice placed in a black box (dark place) feel anxious about light. The time spent until mice began to come out of the box (to a bright place) was measured. […]
In a cage with a mouse, wood chips are spread over the cage floor and 20 marbles are placed thereon in a manner that is visible to the mouse. The mouse is allowed to freely explore for 30 minutes, and the number of marbles buried and hidden by the mouse in wood chips is counted. […]
The test apparatus used in this test was the same as used in the light/dark test method. […] Such an immobility time of mice is measured. […]

[2] = test system: olfactory bulbectomized mice (OBX mice); assay: Cognitive function in olfactory bulbectomized mice (Y-maze, novel object recognition and other tests); conditions: chronic oral treatment for 2 weeks
Description: The same experiment as in Test Example 4 was carried out using olfactory bulbectomized mice (OBX mice) as a neurodegenerative disease model. […] The OBX mice were prepared from 10-week-old DDY male mice (Nippon SLC, Hamamatsu, Japan). Olfactory bulbectomy surgery was carried out under anesthesia with pentobarbital sodium (50 mg/kg i.p.; Dainippon, Osaka, Japan). The mice were fixed on a stereotaxic apparatus to drill a 1 mm diameter hole in the skull above the olfactory bulb. The olfactory bulb was aspirated without causing damage to the prefrontal cortex. A sham group was prepared by the same procedure as that for the OBX group, without aspiration of olfactory bulb. One week was allowed for recovery from surgery, and behavioral analyses were performed on the day following the treatment with the test compound for 14 days (2 weeks).
The same model mice as described above were orally treated with a single dose of each of the test compounds (1 mg/kg), and analyzed after 1 hour by Y-maze test and novel object recognition test. The results are shown in FIGS. 22-3 and 22-4 (Y-maze test), and FIG. 22-5 (novel object recognition test).

CaMKII = assay: Protein phosphorylation in hippocampus of APP23 mice (immunoblotting); conditions: APP23 mice chronically treated orally, 1 mg/kg, two months
Description: Hippocampus samples were excised from APP23 mice, and hippocampal slices were suspended in an SDS sample buffer and analyzed for protein phosphorylation by immunoblotting using antibodies against CaMKII, CaMKIV and ERK (CaMKII: Fukunaga, et al., J. Biol. Chem. 1992, 267, 22527-22533; CaMKIV: Kasahara, et al., J. Biol. Chem. 2001, 276, 24044-24050; ERK: produced by Sigma-Aldrich). CaMKII, CaMKIV and ERK are all considered as molecules playing an important role in memory formation.

ob/ob mice = assay: Blood glucose levels in ob/ob mice; conditions: chronic treatment 1 mg/kg for 4 weeks, on and after week 3
Description: In order to determine the hypoglycemic effect of TP-014, ob/ob mice were measured for blood glucose levels using an assay kit (produced by Technicon International Inc.). The measurement was taken for 4 weeks, and chronic treatment with TP-014 (1 mg/kg) was continued for 4 weeks. […] Tolbutamide was used as a control drug. Kir6.2 channels bind to SUR1 ([…]) on the cell membrane to form channels. The mechanism of action is considered to be inhibition of Kir6.2 channels. Tolbutamide inhibits Kir6.2 channels by binding to SUR1.

CaMKIV-deficient mice = assay: Tail-suspension test and forced swim test in CaMKIV-deficient mice; conditions: chronic oral treatment for 2 weeks, 1 mg/kg
Description: By following the same procedure as in Test Example 12, CaMKIV-deficient mice (n=5*per group) were analyzed for CaMKIV induced by Kir6.1 channels.
The CaMKIV-deficient mice were obtained from professor Hiroyuki Sakagami, Kitasato University School of Medicine (Takao K., et al., PLoS One 2010, 5, e9460).

Compound: O=C(N[C@@H](c1ccccc1)[C@H]1[C@H]2C[C@@H]3C[C@](Cl)(C2)C[C@@]1(OC(=O)C(F)(F)F)C3)C(F)(F)F [TP-014, (1S,2R,3S,5S,7S)-5-chloro-2-((R)-phenyl(2,2,2-trifluoroacetamido)methyl)adamantan-1-yl 2,2,2-trifluoroacetate]
- exacerbated anxiety symptoms (elevated plus-maze, light/dark, marble burying, open field, fear conditioning tests) [1]: significant amelioration of exacerbated anxiety symptoms
- cognitive function impairment [2]: significantly improved
- CaMKII phosphorylation in hippocampus (CaMKII): increased CaMKII phosphorylation
- blood glucose levels (ob/ob mice): significantly decreased
- depression-like symptom (increased immobility time) (CaMKIV-deficient mice): no effect
